Patent US11903959B2 (EMORY UNIVERSITY, priority 2017, dated 2024)
Values joined by “and” are separate entries in the source; they are usually repeats but may differ in a detail not shown here. Identical values can stand only once. Like-named read-outs stand apart in the source and are kept apart here.

How the values were obtained:
[1] = tested on: Tacaribe virus; test: microbe, parasite or virus in culture; assay type: cell-based; conditions: Mammarenavirus tacaribeense, Vero, Vero cells
[2] = tested on: Junin virus; test: microbe, parasite or virus in culture; assay type: cell-based; conditions: Mammarenavirus juninense, Vero, Vero cells
[3] = tested on: Lassa fever virus; test: organism not typed; assay type: cell-based; conditions: Vero
[4] = tested on: EEEV; test: microbe, parasite or virus in culture; assay type: cell-based; conditions: Eastern equine encephalitis virus
[5] = tested on: Punta Toro virus; test: microbe, parasite or virus in culture; assay type: cell-based
[6] = tested on: Heartland virus; test: microbe, parasite or virus in culture; assay type: cell-based; conditions: Vero
[7] = tested on: MERS; test: microbe, parasite or virus in culture; assay type: cell-based, MERS coronavirus; conditions: Middle East respiratory syndrome-related coronavirus, Vero C1008
[8] = tested on: SARS; test: microbe, parasite or virus in culture; assay type: cell-based, SARS coronavirus; conditions: Severe acute respiratory syndrome coronavirus
[9] = tested on: Flu A H5N1 (High Path); test: microbe, parasite or virus in culture; assay type: cell-based; conditions: Influenza A virus, H5N1, MDCK, MDCK cells
[10] = tested on: Flu A H3N2; test: microbe, parasite or virus in culture; assay type: cell-based, influenza A virus
[11] = tested on: Enterovirus-71; assay type: cell-based
[12] = tested on: Poliovirus -1; test: microbe, parasite or virus in culture; assay type: cell-based; conditions: Enterovirus C, Vero 76, Poliovirus -1, Vero76 cells
[13] = tested on: HRV-14; test: microbe, parasite or virus in culture; assay type: cell-based
[14] = Cytotoxicity (CC50) run with antiviral assays, BHK cells; assay type: cell-based; conditions: hamster, Flaviviridae table
Experimental: Four-concentration CPE inhibition assays are performed. Confluent or near-confluent cell culture monolayers in 96-well disposable microplates are prepared. Cells are maintained in MEM or DMEM supplemented with FBS as required for each cell line. For antiviral assays the same medium is used but with FBS reduced to 2% or less and supplemented with 50 μg/mL gentamicin. The test compound is prepared at four log10 final concentrations, usually 0.1, 1.0, 10, and 100 μg/mL or μM. The virus control and cell control wells are on every microplate. In parallel, a known active drug is tested as a positive control drug using the same method as is applied for test compounds. The positive control is tested with each test run. The assay is set up by first removing growth media from the 96-well plates of cells. Then the test compound is applied in 0.1 mL volume to wells at 2× concentration. […] The dye content in each well is quantified using a 96-well spectrophotometer at 540 nm wavelength. […]
This assay involves similar methodology to what is described in the previous paragraphs using 96-well microplates of cells. […] The incorporated dye content is quantified as described above. […] Compounds observed to be active above are further evaluated by VYR assay. […] Wells are scored for presence or absence of virus after distinct CPE (measured by neutral red uptake) is observed. […]

[15] = female, in vivo, po
[16] = ICR (CD-1), mouse, in vivo
[17] = tested on: Vero cells
[18] = in vivo; conditions: female, DBA-1J, mouse, po
[19] = Cytotoxicity (CC50) run with antiviral assays, MA-104 cells; conditions: African green monkey, CC50, MA-104 cells, Parainfluenza and RSV table

`O=c1nc(NO)ccn1C1OC(CO)C(O)C1O` (stereo not shown) [EIDD-1931, 1-(3,4-dihydroxy-5-(hydroxymethyl)tetrahydrofuran-2-yl)-4-(hydroxyamino)pyrimidin-2-one] gave an EC50 [1] of 14.4 µM, an EC50 [2] of 18.4 µM and an EC50 [3] of 4.04 µM. It also gave an EC90 ([4]; Vero 76) of 1.68 µM, an EC50 ([4]; Vero, EEE virus, Vero cell cytopathic effect (CPE) model) of 1.08 µM and an EC50 [5] of 20.4 µM. The EC50 ([5]; Punta Toro virus, Vero 76) was 20 µM, the EC90 [6] was 7.84 µM and the EC50 [7] was < 0.8 µM. The EC90 [7] was < 0.8 µM, the EC90 ([8]; Vero 76) was 0.56 µM and the EC90 ([8]; Vero C1008) was < 0.8 µM. For the same compound, the EC50 ([8]; Vero C1008, SARS, Vero E6 cells) was < 0.8 µM, the EC50 [9] was > 88 µM and the EC50 [10] was 0.88 µM. For the same compound, the EC50 ([10]; Influenza A virus, H3N2, MDCK) was 0.96 µM, the EC50 [11] was 3.44 µM and 3.36 µM and the EC50 [12] was 12.8 µM. The EC50 [13] was 1.36 µM, the EC50 ([13]; Rhinovirus B, HRV14) was 1.28 µM and the CC50 [14] was 30 µM. For the same compound, the t1/2 ([15]; 4 mg/kg) was 8.2 ± 1.7 h, the t1/2 ([15]; 20 mg/kg) was 4.7 ± 1.3 h and the t1/2 ([15]; outbred, 128 mg/kg) was 5.1 ± 0.8 h. It also gave a t1/2 ([15]; outbred, 512 mg/kg) of 4.2 ± 0.6 h, a t1/2 ([16]; 15 mg/kg) of 2.9 h and a t1/2 ([16]; 225 mg/kg) of 4.2 h. The AUCinf ([16]; 750 mg/kg) was 228.9 µM·h, the “Brain Cmax” value ([16]; 750 mg/kg) was 18.8 nmol/g and the t1/2 ([16]; 750 mg/kg) was 5.2 h. For the same compound, the “AUC0->t” value [17] was 228.6 pmol · h/M cells, the half-life [18] was 4.1 to 4.7 h and the Cmax ([18]; 30 mg/kg) was 3000 ng/mL. It also gave a Cmax ([18]; 100 mg/kg) of 7700 ng/mL, a Cmax ([18]; 300 mg/kg) of 11700 ng/mL and a tmax ([18]; 300 mg/kg) of 0.25 to 0.5 h. The CC50 [19] was 272 µM.
